We go through 18 compounds from patent US20110098296A1, “Thiazole And Oxazole Kinase Inhibitors” (priority 2007, published 2011).

Structures are written as SMILES. Where only a bound is given, the exact number is not on record here.

One assay addresses T1, EGFR (Homo sapiens, UniProt P00533).
T1 construct: made in house; host or cells: baculovirus expression system
In words: EGFR substrate phosphorylation assay (HTRF). It is filed as biochemical. The gist of the method: (§1)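 Baculovirus-expressed kinase (0.8 nM EGFR or 10 nM ErbB2 in enzyme mix) with Peptide C 0.8 μM and ATP 20 μM (substrate-mix levels), MOPS pH 7.5, MnCl2; 90 min, 20 °C, HTRF anti-phosphotyrosine. Method A adds 1 h enzyme–compound preincubation; B none. pIC50, final compound 0.00027–47.6 μM.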

The next assay has as its target T2, ErbB2 (Homo sapiens, UniProt P04626).
T2 construct: made in house; host or cells: baculovirus expression system
In words: ErbB-2 substrate phosphorylation assay (HTRF). Type of assay: biochemical. The gist of the method:
as §1

A further assay has as its system HN5 tumor cells. In words: Method A: Methylene Blue Growth Inhibition Assay, HN5. Type of assay: cell-based. Particulars: Homo sapiens, 72 h, 3 days. The protocol: (§2) Human breast (BT474) and head and neck (HN5) tumor cells were cultured in low glucose DMEM (Life Technologies 12320-032) containing 10% fetal bovine serum (FBS). Human colon tumor cells (Colo205) were cultured in DMEM (Invitrogen, 10564) containing 10% FBS. The SV40 transformed human mammary epithelial cell line HB4a was transfected with either human H-ras cDNA (HB4a r4.2) or the human c-ErbB2 cDNA (HB4a c5.2). The HB4a clones were cultured in RPMI containing 10% FBS, insulin (5 g/mL), hydrocortisone (5 g/mL), supplemented with the selection agent hygromycin B (50 g/mL). All lines were grown in a humidified incubator at 37° C. in 95% air, 5% CO2. Cells were harvested using trypsin/EDTA, counted using a haemocytometer, and plated in 100 μL of the appropriate media, at the following densities, in a 96-well tissue culture plate (Falcon 3075): BT474 10,000 cells/well, HN5 3,000 cells/well. The next day, compounds were diluted in DMEM containing […] gentamicin, at twice the final required concentration, from 10 mM stock solutions in DMSO. 100 μl/well of these dilutions were added to the 100 μL of media currently on the cell plates. Medium containing 0.6% DMSO was added to control wells. Compounds diluted in DMEM were added to all cell lines. The final concentration of DMSO in all wells was 0.3%. Cells were returned to the incubator (37° C., […]) for 3 days. Medium was then removed by aspiration. Cell biomass was estimated by staining cells with 90 μL/well methylene blue (Sigma M9140, 0.5% in 1:1 EtOH:H2O), and incubation at room temperature for at least 30 minutes. Stain was removed, and the plates rinsed by immersion in deionized H2O and air-dried. To release stain from the cells 100 μL of solubilization solution were added (1% N-lauroyl sarcosine, sodium salt, Sigma L5125, in PBS), and plates were shaken gently for about 30 minutes. Optical density at 620 nm was measured on a microplate reader. Percent inhibition of cell growth was calculated relative to vehicle-treated control wells. Concentration of compound that inhibits 50% of control cell growth (IC50) was interpolated using nonlinear regression (Levenberg-Marquardt) and the equation,
(§3) y=Vmax*(1−(x/(K+x)))+Y2, where “K” was equal to the IC50.

The test system of a further assay is BT474 tumor cells. In words: Method A: Methylene Blue Growth Inhibition Assay, BT474. Particulars: Homo sapiens, BT-474, 72 h, 3 days. Type of assay: cell-based. The protocol: as §2, §3
The subject of another assay is Colo205 tumor cells. In words: Method A: Methylene Blue Growth Inhibition Assay, Colo205. It is filed as cell-based. To be noted: Homo sapiens, COLO 205, 72 h, 3 days. The protocol: as §2, §3
The mark [1] stands for this setting: Method (A): Enzyme Mix incubated with compound at 20° C. for 1 hr, reaction started by adding Substrate Mix.
The mark [2] stands for this setting: Method (B): Substrate Mix added to compound first, reaction started by adding Enzyme Mix.

T2 sequence (P04626 23-1255): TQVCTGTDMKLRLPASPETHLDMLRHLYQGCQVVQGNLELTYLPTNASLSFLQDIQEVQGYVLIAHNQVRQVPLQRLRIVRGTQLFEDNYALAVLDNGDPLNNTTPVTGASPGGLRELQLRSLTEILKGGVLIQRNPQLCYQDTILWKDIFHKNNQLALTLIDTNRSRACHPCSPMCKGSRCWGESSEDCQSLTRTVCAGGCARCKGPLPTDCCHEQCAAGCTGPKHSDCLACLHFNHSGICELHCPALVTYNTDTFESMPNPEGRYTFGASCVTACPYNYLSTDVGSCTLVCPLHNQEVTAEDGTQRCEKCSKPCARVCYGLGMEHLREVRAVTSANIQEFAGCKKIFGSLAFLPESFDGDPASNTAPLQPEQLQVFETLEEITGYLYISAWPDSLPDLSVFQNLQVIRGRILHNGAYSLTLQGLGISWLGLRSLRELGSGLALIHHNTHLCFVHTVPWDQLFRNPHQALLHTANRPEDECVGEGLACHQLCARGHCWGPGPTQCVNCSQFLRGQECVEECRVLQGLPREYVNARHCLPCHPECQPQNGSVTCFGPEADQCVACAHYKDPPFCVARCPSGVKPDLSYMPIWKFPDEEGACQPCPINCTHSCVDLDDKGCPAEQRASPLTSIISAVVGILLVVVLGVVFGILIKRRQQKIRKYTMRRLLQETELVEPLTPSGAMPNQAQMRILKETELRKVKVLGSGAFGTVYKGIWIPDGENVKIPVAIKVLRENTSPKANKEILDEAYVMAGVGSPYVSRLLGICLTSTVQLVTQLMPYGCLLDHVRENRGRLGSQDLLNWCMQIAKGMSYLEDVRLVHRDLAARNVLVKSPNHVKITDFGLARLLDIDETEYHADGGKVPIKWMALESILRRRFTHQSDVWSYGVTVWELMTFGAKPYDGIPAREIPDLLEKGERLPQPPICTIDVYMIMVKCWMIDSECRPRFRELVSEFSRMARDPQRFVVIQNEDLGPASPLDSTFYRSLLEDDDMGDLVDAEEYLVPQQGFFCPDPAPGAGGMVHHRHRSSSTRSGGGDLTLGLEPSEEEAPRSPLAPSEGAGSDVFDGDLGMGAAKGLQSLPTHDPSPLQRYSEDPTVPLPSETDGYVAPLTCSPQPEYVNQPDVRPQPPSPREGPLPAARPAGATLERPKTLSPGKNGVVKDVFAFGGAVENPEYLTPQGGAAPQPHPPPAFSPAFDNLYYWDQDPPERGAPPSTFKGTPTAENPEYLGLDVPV
T1 sequence (P00533 25-1210): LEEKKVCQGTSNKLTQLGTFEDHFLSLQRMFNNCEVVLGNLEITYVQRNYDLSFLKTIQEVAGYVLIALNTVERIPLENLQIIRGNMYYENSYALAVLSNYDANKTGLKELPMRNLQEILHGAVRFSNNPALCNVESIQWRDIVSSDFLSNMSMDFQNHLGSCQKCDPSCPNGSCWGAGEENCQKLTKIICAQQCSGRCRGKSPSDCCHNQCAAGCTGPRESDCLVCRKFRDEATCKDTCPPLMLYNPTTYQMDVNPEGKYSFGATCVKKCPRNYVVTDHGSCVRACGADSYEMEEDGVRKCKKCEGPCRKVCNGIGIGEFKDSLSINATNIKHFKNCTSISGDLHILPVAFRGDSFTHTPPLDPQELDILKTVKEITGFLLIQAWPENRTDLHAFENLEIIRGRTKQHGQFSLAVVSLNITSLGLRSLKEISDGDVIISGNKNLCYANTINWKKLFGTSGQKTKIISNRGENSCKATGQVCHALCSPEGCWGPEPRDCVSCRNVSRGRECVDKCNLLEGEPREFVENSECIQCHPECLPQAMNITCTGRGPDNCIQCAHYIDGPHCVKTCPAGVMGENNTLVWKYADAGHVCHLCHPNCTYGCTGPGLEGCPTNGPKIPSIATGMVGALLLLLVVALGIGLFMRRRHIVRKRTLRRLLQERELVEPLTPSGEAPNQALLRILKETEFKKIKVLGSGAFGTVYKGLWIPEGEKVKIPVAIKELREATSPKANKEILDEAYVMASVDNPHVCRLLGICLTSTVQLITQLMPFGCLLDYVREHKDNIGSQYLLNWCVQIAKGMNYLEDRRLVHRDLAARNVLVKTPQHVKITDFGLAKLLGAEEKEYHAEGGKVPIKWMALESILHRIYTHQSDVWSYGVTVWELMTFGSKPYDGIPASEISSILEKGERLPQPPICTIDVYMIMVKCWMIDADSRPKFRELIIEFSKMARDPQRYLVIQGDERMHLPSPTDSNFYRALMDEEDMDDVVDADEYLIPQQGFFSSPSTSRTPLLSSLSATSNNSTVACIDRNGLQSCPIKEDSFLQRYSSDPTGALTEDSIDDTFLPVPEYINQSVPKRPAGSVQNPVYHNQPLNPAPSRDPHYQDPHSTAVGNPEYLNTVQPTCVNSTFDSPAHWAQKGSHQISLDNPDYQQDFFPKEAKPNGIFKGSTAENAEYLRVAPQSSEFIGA

As for `Nc1nc(-c2cccc(NC(=O)c3cc(F)ccc3F)c2)c(-c2ccnc(Nc3cccc(-c4cnco4)c3)n2)s1` [Example 54], the half-maximal inhibitory concentration (IC50) (as a rule, the concentration that gives 50% inhibition) is less than 0.1 µM on EGFR (setting [1]); less than 0.1 µM at ErbB2 (setting [1]); less than 0.1 µM in the assay on HN5 tumor cells; less than 0.1 µM in the assay on BT474 tumor cells; more than 1 µM in the assay on Colo205 tumor cells.

Turning to `CNc1nc(-c2cccc(NC(=O)c3cc(F)ccc3F)c2)c(-c2ccnc(Nc3ccc(OC)c(F)c3)n2)s1` [Example 51, 2,5-Difluoro-N-{3-[5-(2-{[3-fluoro-4-(methyloxy)phenyl]amino}-4-pyrimidinyl)-2-(methylamino)-1,3-thiazol-4-yl]phenyl}benzamide], the IC50 was less than 0.1 µM at EGFR (setting [1]); less than 0.1 µM at ErbB2 (setting [1]); more than 1 µM with HN5 tumor cells; 0.1 to 1 µM with BT474 tumor cells; more than 1 µM in the assay on Colo205 tumor cells.

In the case of `Nc1nc(-c2cccc(OCc3ccccc3)c2)c(-c2ccnc(Nc3ccc4c(c3)CNCC4)n2)s1` [Example 71, N-[4-(2-Amino-4-{3-[(phenylmethyl)oxy]phenyl}-1,3-thiazol-5-yl)-2-pyrimidinyl]-1,2,3,4-tetrahydro-7-isoquinolinamine], the IC50 on EGFR (setting [1]) was less than 0.1 µM; on ErbB2 (setting [1]), less than 0.1 µM; in the assay on HN5 tumor cells, 0.1 to 1 µM; with BT474 tumor cells, 0.1 to 1 µM; in the assay on Colo205 tumor cells, more than 1 µM.

As to `Nc1nc(-c2cccc(NC(=O)c3c(F)cccc3F)c2)c(-c2ccnc(Nc3ccc4c(c3)CNCC4)n2)s1` [Example 21, N-(3-{2-Amino-5-[2-(1,2,3,4-tetrahydro-7-isoquinolinylamino)-4-pyrimidinyl]-1,3-thiazol-4-yl}phenyl)-2,6-difluorobenzamide], the half-maximal inhibitory concentration (IC50) is less than 0.1 µM at EGFR (setting [1]); less than 0.1 µM on ErbB2 (setting [1]); less than 0.1 µM in the assay on HN5 tumor cells; less than 0.1 µM in the assay with BT474 tumor cells; 0.1 to 1 µM in the assay on Colo205 tumor cells.

For `Nc1nc(-c2cccc(NC(=O)C3CCCCC3)c2)c(-c2ccnc(Nc3cccc(-c4cnco4)c3)n2)s1` [Example 62, N-{3-[2-Amino-5-(2-{[3-(1,3-oxazol-5-yl)phenyl]amino}-4-pyrimidinyl)-1,3-thiazol-4-yl]phenyl}cyclohexanecarboxamide], the concentration for half-maximal inhibition (IC50) on EGFR (setting [1]) was less than 0.1 µM; on ErbB2 (setting [1]), less than 0.1 µM; in the assay on HN5 tumor cells it was less than 0.1 µM; in the assay on BT474 tumor cells it was 0.1 to 1 µM; in the assay with Colo205 tumor cells, 0.1 to 1 µM.

On to `Nc1nc(-c2cccc(NC(=O)c3cc(F)ccc3F)c2)c(-c2ccnc(Nc3ccc4c(c3)CNCC4)n2)s1` [Example 57], for which the half-inhibitory concentration (IC50) is less than 0.1 µM at EGFR (setting [1]); less than 0.1 µM on ErbB2 (setting [1]); less than 0.1 µM with HN5 tumor cells; less than 0.1 µM in the assay with BT474 tumor cells; 0.1 to 1 µM in the assay with Colo205 tumor cells.

Take `CN(C)CCOc1ccc(Nc2nccc(-c3sc(N)nc3-c3cccc(NC(=O)C4CCCCC4)c3)n2)cc1Cl` [Example 61]: the IC50 on EGFR (setting [1]) was less than 0.1 µM; at ErbB2 (setting [1]) it was less than 0.1 µM; with HN5 tumor cells, less than 0.1 µM; in the assay on BT474 tumor cells, 0.1 to 1 µM; with Colo205 tumor cells it was 0.1 to 1 µM.

Regarding `COCCOc1ccc(Nc2nccc(-c3sc(N)nc3-c3cccc(NC(=O)c4c(F)cccc4F)c3)n2)cc1F` [Example 3], the half-maximal inhibitory concentration (IC50) is less than 0.1 µM on EGFR (setting [1]); less than 0.1 µM at ErbB2 (setting [1]); less than 0.1 µM in the assay on HN5 tumor cells; less than 0.1 µM with BT474 tumor cells; 0.1 to 1 µM in the assay on Colo205 tumor cells.

On to `COc1ccc(Nc2nccc(-c3sc(N)nc3-c3cccc(NC(=O)c4cc(F)ccc4F)c3)n2)cc1F` [Example 50, N-{3-[2-Amino-5-(2-{[3-fluoro-4-(methyloxy)phenyl]amino}-4-pyrimidinyl)-1,3-thiazol-4-yl]phenyl}-2,5-difluorobenzamide], for which the half-inhibitory concentration (IC50) is less than 0.1 µM on EGFR (setting [1]); less than 0.1 µM at ErbB2 (setting [1]); less than 0.1 µM with HN5 tumor cells; 0.1 to 1 µM in the assay on BT474 tumor cells; more than 1 µM with Colo205 tumor cells.

`COc1ccc(Nc2nccc(-c3sc(NCCN4CCOCC4)nc3-c3cccc(NC(=O)c4cc(F)ccc4F)c3)n2)cc1F` [Example 53, 2,5-Difluoro-N-[3-(5-(2-{[3-fluoro-4-(methyloxy)phenyl]amino}-4-pyrimidinyl)-2-{[2-(4-morpholinyl)ethyl]amino}-1,3-thiazol-4-yl)phenyl]benzamide]: the IC50 at EGFR (setting [1]) is less than 0.1 µM; on ErbB2 (setting [1]), less than 0.1 µM; with HN5 tumor cells, less than 0.1 µM; in the assay with BT474 tumor cells, less than 0.1 µM; with Colo205 tumor cells it was 0.1 to 1 µM.

For `O=C(Nc1cccc(-c2nc(NCCN3CCOCC3)sc2-c2ccnc(Nc3ccc4c(c3)CNCC4)n2)c1)c1c(F)cccc1F` [Example 1, 2,6-Difluoro-N-(3-{2-{[2-(4-morpholinyl)ethyl]amino}-5-[2-(1,2,3,4-tetrahydro-7-isoquinolinylamino)-4-pyrimidinyl]-1,3-thiazol-4-yl}phenyl)benzamide], the half-inhibitory concentration (IC50) at EGFR (setting [1]) is less than 0.1 µM; at ErbB2 (setting [1]) it was less than 0.1 µM; in the assay with HN5 tumor cells it was less than 0.1 µM; with BT474 tumor cells, less than 0.1 µM; with Colo205 tumor cells it was 0.1 to 1 µM.

With `CN(C)CCOc1ccc(Nc2nccc(-c3sc(N)nc3-c3cccc(OCc4ccccc4)c3)n2)cc1Cl` [Example 70, 4-(2-Amino-4-{3-[(phenylmethyl)oxy]phenyl}-1,3-thiazol-5-yl)-N-(3-chloro-4-{[2-(dimethylamino)ethyl]oxy}phenyl)-2-pyrimidinamine], the IC50 at EGFR (setting [1]) was less than 0.1 µM; on ErbB2 (setting [1]), less than 0.1 µM; with HN5 tumor cells, 0.1 to 1 µM; in the assay on BT474 tumor cells it was 0.1 to 1 µM; in the assay with Colo205 tumor cells, 0.1 to 1 µM.

For the compound `COCCOc1ccc(Nc2nccc(-c3sc(N)nc3-c3cccc(NC(=O)c4cc(F)ccc4F)c3)n2)cc1F` [Example 58, N-[3-(2-Amino-5-{2-[(3-fluoro-4-{[2-(methyloxy)ethy]oxy}phenyl)amino]-4-pyrimidinyl}-1,3-thiazol-4-yl)phenyl]-2,5-difluorobenzamide], the 50% inhibitory concentration (IC50) was less than 0.1 µM at EGFR (setting [1]); less than 0.1 µM at ErbB2 (setting [1]); less than 0.1 µM in the assay on HN5 tumor cells; less than 0.1 µM in the assay on BT474 tumor cells; 0.1 to 1 µM in the assay on Colo205 tumor cells.

In the case of `CN(C)CCCNc1ccc(Nc2nccc(-c3sc(N)nc3-c3cccc(NC(=O)C4CCCCC4)c3)n2)cc1F` [Example 60], the IC50 at EGFR (setting [1]) was less than 0.1 µM; on ErbB2 (setting [1]), less than 0.1 µM; with HN5 tumor cells, less than 0.1 µM; in the assay on BT474 tumor cells it was 0.1 to 1 µM; in the assay with Colo205 tumor cells, 0.1 to 1 µM.

As for `COCCNc1nc(-c2cccc(NC(=O)c3cc(F)ccc3F)c2)c(-c2ccnc(Nc3ccc(OC)c(F)c3)n2)s1` [Example 52, 2,5-Difluoro-N-[3-(5-(2-{[3-fluoro-4-(methyloxy)phenyl]amino}-4-pyrimidinyl)-2-{[2-(methyloxy)ethyl]amino}-1,3-thiazol-4-yl)phenyl]benzamide], the IC50 is less than 0.1 µM on EGFR (setting [1]); less than 0.1 µM at ErbB2 (setting [1]); 0.1 to 1 µM with HN5 tumor cells; less than 0.1 µM in the assay with BT474 tumor cells; 0.1 to 1 µM in the assay with Colo205 tumor cells.

Take `O=C(Nc1cccc(-c2ncsc2-c2ccnc(Nc3cccc(F)c3)n2)c1)c1c(F)cccc1F` [Example 88]: the IC50 was 0.1 to 1 µM on EGFR (setting [1]), 0.1 to 1 µM against ErbB2 (setting [2]), less than 0.1 µM in the assay with HN5 tumor cells and 0.1 to 1 µM with BT474 tumor cells.

`COc1ccc(Nc2nccc(-c3scnc3-c3cccc(NC(=O)c4c(F)cccc4F)c3)n2)cc1F` [Example 87, 2,6-Difluoro-N-{3-[5-(2-{[3-fluoro-4-(methyloxy)phenyl]amino}-4-pyrimidinyl)-1,3-thiazol-4-yl]phenyl}benzamide]: the IC50 at EGFR (setting [2]) is 0.1 to 1 µM; at ErbB2 (setting [2]) it was 0.1 to 1 µM; in the assay with HN5 tumor cells it was less than 0.1 µM; with BT474 tumor cells, 0.1 to 1 µM; with Colo205 tumor cells it was more than 1 µM.

Turning to `Nc1nc(-c2cccc(NC(=O)c3c(F)cccc3F)c2)c(-c2ccnc(Nc3cccc(-c4cnco4)c3)n2)s1` [Example 14, N-{3-[2-Amino-5-(2-{[3-(1,3-oxazol-5-yl)phenyl]amino}-4-pyrimidinyl)-1,3-thiazol-4-yl]phenyl}-2,6-difluorobenzamide], the IC50 on EGFR (setting [1]), at ErbB2 (setting [1]), with HN5 tumor cells, in the assay on BT474 tumor cells and with Colo205 tumor cells was less than 0.1 µM each time.
